Patent US20240287046A1, “COMPOUNDS AND RADIOLIGANDS FOR TARGETING NEUROTENSIN RECEPTOR AND USES THEREOF” (Full-Life Technologies HK Limited, priority 2022, published 2024)

Test system: ASPC-1 tumor-bearing mice
Experiment: Biodistribution of radionuclide labeled complexes in ASPC-1 tumor-bearing mice
Assay type: in vivo, BALB/c nude mice
Experimental: The BALB/c nude mice (Charles River, Beijing) were utilized to establish the xenografted model for biodistribution study. All animal care and experimental procedure were performed by following the animal protocols approved by the ethics committee of China Institute of Radiation Protection.
Briefly, each mouse was inoculated with approximately 4×10^6 ASPC-1 cells (human pancreatic cancer cell line) or HT-29 cells (human colorectal adenocarcinoma cell line) expressing human NTSR-1 by subcutaneous injection at rear flank. After inoculation, the xenografted tumors were allowed to grow for ˜2-4 weeks till the tumor weight reached to about 0.05 to 0.50 g (0.20 g in average).
Biodistribution studies were performed by administrating the radionuclide labeled test compound at a dose of ˜30-50 μCi (100 μL in 0.9% NaCl, ˜1.11-1.85 MBq, with specific activity 30-250 μCi/nmol) to each animal through tail vein injection.
At different time points after the administration, the mice treated with each compound were euthanized. The tissues and organs of the animals in each group were collected, excised, weighed, and analyzed in a PerkinElmer 2480 WIZARD2γ counter, and the percent injected dose (% ID) and % ID/g of each organ or tissue were calculated.

% ID/g (4 h) Blood (Blood, 4 h) | % ID/g (4 h) Femur (Femur, 4 h) | % ID/g (4 h) Heart (Heart, 4 h) | % ID/g (4 h) Intestine (Intestine, 4 h) | % ID/g (4 h) Kidney (Kidney, 4 h) | % ID/g (4 h) Liver (Liver, 4 h) | % ID/g (4 h) Lung (Lung, 4 h) | % ID/g (4 h) Muscle (Muscle, 4 h) | % ID/g (4 h) Pancreas (Pancreas, 4 h) | % ID/g (4 h) Spleen (Spleen, 4 h) | % ID/g (4 h) Stomach (Stomach, 4 h) | % ID/g (4 h) Tumor (Tumor, 4 h) | % ID/g (24 h) Blood (Blood) | % ID/g (24 h) Femur (Femur) | % ID/g (24 h) Heart (Heart) | % ID/g (24 h) Intestine (Intestine) | % ID/g (24 h) Kidney (Kidney) | % ID/g (24 h) Liver (Liver) | % ID/g (24 h) Lung (Lung) | % ID/g (24 h) Muscle (Muscle) | also measured | SMILES
0.22 ± 0.07 % ID/g | 0.13 ± 0.1 % ID/g | 0.16 ± 0.06 % ID/g | 0.42 ± 0.16 % ID/g | 0.33 ± 0.09 % ID/g | 0.79 ± 0.08 % ID/g | 0.3 ± 0.15 % ID/g | 0.06 ± 0.02 % ID/g | 0.06 ± 0.02 % ID/g | 0.08 ± 0.03 % ID/g | 0.4 ± 0.22 % ID/g | 13.06 ± 6.54 % ID/g |  |  |  |  |  |  |  |  | uptake ratio Tumor/Blood (1 h): 4.7; uptake ratio Tumor/Kidney (1 h): 17.2; uptake ratio Tumor/Liver (1 h): 17.9; uptake ratio Tumor/Lung (1 h): 9.0; uptake ratio Tumor/Blood (4 h): 60.5; uptake ratio Tumor/Kidney (4 h): 40.0; uptake ratio Tumor/Liver (4 h): 16.6; uptake ratio Tumor/Lung (4 h): 43.3; % ID/g (1 h) Blood (Blood, 1 h): 3.18 ± 0.24 % ID/g; % ID/g (1 h) Femur (Femur, 1 h): 0.53 ± 0.04 % ID/g; % ID/g (1 h) Heart (Heart, 1 h): 1.46 ± 0.24 % ID/g; % ID/g (1 h) Intestine (Intestine, 1 h): 1.28 ± 0.11 % ID/g; % ID/g (1 h) Kidney (Kidney, 1 h): 0.87 ± 0.05 % ID/g; % ID/g (1 h) Liver (Liver, 1 h): 0.84 ± 0.43 % ID/g; % ID/g (1 h) Lung (Lung, 1 h): 1.66 ± 0.93 % ID/g; % ID/g (1 h) Muscle (Muscle, 1 h): 0.31 ± 0.05 % ID/g; % ID/g (1 h) Pancreas (Pancreas, 1 h): 0.26 ± 0.05 % ID/g; % ID/g (1 h) Spleen (Spleen, 1 h): 0.26 ± 0.05 % ID/g; % ID/g (1 h) Stomach (Stomach, 1 h): 0.55 ± 0.13 % ID/g; % ID/g (1 h) Tumor (Tumor, 1 h): 14.96 ± 6.57 % ID/g | COc1cccc(OC)c1-c1cc(C(=O)NC2(C(=O)O)C3CC4CC(C3)CC2C4)nn1-c1ccc(C(=O)N(CCCNC(=O)CN2CCN(CC(=O)[O-])CCN(CC(=O)[O-])CCN(CC(=O)[O-])CC2)CCCN(C)C)cc1C(C)C.[177Lu+3] (stereo not shown) [^177Lu-C-5, reference compound]
2.08 ± 0.14 % ID/g | 0.72 ± 0.05 % ID/g | 0.68 ± 0.5 % ID/g | 0.98 ± 0.2 % ID/g | 3.66 ± 2.51 % ID/g | 1.81 ± 0.43 % ID/g | 0.64 ± 0.1 % ID/g | 0.47 ± 0.25 % ID/g | 0.41 ± 0.28 % ID/g | 0.42 ± 0.16 % ID/g | 0.57 ± 0.16 % ID/g | 6.93 ± 0.71 % ID/g | 0.06 ± 0.02 % ID/g | 0.19 ± 0.09 % ID/g | 0.24 ± 0.1 % ID/g | 0.37 ± 0.07 % ID/g | 3.16 ± 1.81 % ID/g | 0.97 ± 0.45 % ID/g | 0.31 ± 10.1 % ID/g | 0.13 ± 0.05 % ID/g | tumor AUC over 72 hours compared to ^177Lu—C2: significantly higher tumor AUC; % ID/g (72 h) Blood (Blood, 72 h): 0.04 ± 0.01 % ID/g; % ID/g (72 h) Femur (Femur, 72 h): 0.15 ± 0.06 % ID/g; % ID/g (72 h) Heart (Heart, 72 h): 0.18 ± 0.03 % ID/g; % ID/g (72 h) Intestine (Intestine, 72 h): 0.51 ± 0.1 % ID/g; % ID/g (72 h) Kidney (Kidney, 72 h): 1.3 ± 0.61 % ID/g; % ID/g (72 h) Liver (Liver, 72 h): 1.06 ± 0.46 % ID/g; % ID/g (72 h) Lung (Lung, 72 h): 0.33 ± 0.28 % ID/g; % ID/g (72 h) Muscle (Muscle, 72 h): 0.06 ± 0.01 % ID/g; % ID/g (24 h) Pancreas (Pancreas): 0.18 ± 0.09 % ID/g; % ID/g (72 h) Pancreas (Pancreas, 72 h): 0.07 ± 0.04 % ID/g; % ID/g (24 h) Spleen (Spleen): 0.53 ± 0.25 % ID/g; % ID/g (72 h) Spleen (Spleen, 72 h): 0.24 ± 0.08 % ID/g; % ID/g (24 h) Stomach (Stomach): 0.28 ± 0.17 % ID/g; % ID/g (72 h) Stomach (Stomach, 72 h): 0.1 ± 0.02 % ID/g; % ID/g (24 h) Tumor (Tumor): 22.56 ± 1.81 % ID/g; % ID/g (72 h) Tumor (Tumor, 72 h): 7.23 ± 4.46 % ID/g; ratio of tumor AUC verse normal organ AUC (compared to ^177Lu—C2): significantly improved | COc1cccc(OC)c1-c1cc(C(=O)NC2(C(=O)O)C3CC4CC(C3)CC2C4)nn1-c1ccc(N(C)CCCN(C)CCCN(C)C(=O)CN2CCN(CC(=O)[O-])CCN(CC(=O)[O-])CCN(CC(=O)[O-])CC2)cc1C(C)C.[177Lu+3] (stereo not shown) [^177Lu-I-1]
6.25 ± 1.53 % ID/g | 0.89 ± 0.74 % ID/g | 2.39 ± 0.51 % ID/g | 3.51 ± 1.14 % ID/g | 3.09 ± 1.79 % ID/g | 7.4 ± 2.9 % ID/g | 2.92 ± 2.09 % ID/g | 0.54 ± 0.28 % ID/g | 0.53 ± 0.09 % ID/g | 0.71 ± 0.16 % ID/g | 1.74 ± 1.36 % ID/g | 16.7 ± 10.49 % ID/g | 0.23 ± 0.12 % ID/g | 0.4 ± 0.16 % ID/g | 0.5 ± 0.12 % ID/g | 1.00 ± 0.34 % ID/g | 1.47 ± 1.07 % ID/g | 1.86 ± 0.97 % ID/g | 0.55 ± 0.34 % ID/g | 0.34 ± 0.14 % ID/g | % ID/g (24 h) Pancreas (Pancreas): 0.6 ± 0.2 % ID/g; % ID/g (24 h) Spleen (Spleen): 1.22 ± 0.22 % ID/g; % ID/g (24 h) Stomach (Stomach): 0.69 ± 0.46 % ID/g; % ID/g (24 h) Tumor (Tumor): 26.12 ± 10.63 % ID/g | COc1cccc(OC)c1-c1cc(C(=O)NC2(C(=O)O)C3CC4CC(C3)CC2C4)nn1-c1ccc(SCCCN(C)CCCN(C)C(=O)CN2CCN(CC(=O)[O-])CCN(CC(=O)[O-])CCN(CC(=O)[O-])CC2)cc1C(C)C.[177Lu+3] (stereo not shown) [^177Lu-I-8]
